pIC50: −log10 of the molar value.
Legend:
[1] = target: T1, EGFR T790M kinase (Homo sapiens, UniProt P00533, T790M); experiment: In vitro enzymatic activity assay (Z'-LYTE), EGFR T790M; type: biochemical; conditions: Z'-LYTE FRET peptide assay; read-out: EGFRT790M kinase activity (IC50)
T1 construct: purchased invitrogen PV4803
Source text: (§1) In vitro enzymatic activity assay: using Z′-LYTE™ technology (detect fluorescence, coupled-enzyme format, based on the differential sensitivity of phosphorylated and non-phosphorylated peptides to proteolytic cleavage), based on FRET, using Z′ LYTE™ FRET peptide substrate, detect the activity of compounds against enzymatic. […] After one hour, site specific protease which can recognize and cleaves non-phosphorylated FRET-peptide. After another hour, using an excitation wavelength of 400 nm excites, then detect the […] at 445 nm and 520 nm.

[2] = test system: A431 (Human epidermal carcinoma, EGFR high expression); experiment: Cell proliferation by MTT, A431; type: cell-based; conditions: A-431, read-out: A431 50% inhibitory concentration (IC50), 72 h
[3] = test system: EGFR kinase; experiment: In vitro kinase assays of FIGS. 1-22 (WT EGFR and EGFR T790M), inhibition at fixed concentration; type: biochemical; conditions: 1 μM; FIGS. 1-22 (WT EGFR, EGFR T790M)
Procedure: In vitro enzymatic activity assay: using Z′-LYTE™ technology (detect fluorescence, coupled-enzyme format, based on the differential sensitivity of phosphorylated and non-phosphorylated peptides to proteolytic cleavage), based on FRET, using Z′ LYTE™ FRET peptide substrate, detect the activity of compounds against enzymatic. (invitrogen, Z′-LYTE™ KINASE ASSAY KIT-TYR 2 PEPTIDE, PV3191) EGFR T790M kinase (invitrogen, PV4803) was diluted progressively, then FRET-peptide, ATP and different concentrations of compound are added to the solution. After one hour, site specific protease which can recognize and cleaves non-phosphorylated FRET-peptide. After another hour, using an excitation wavelength of 400 nm excites, then detect the […] at 445 nm and 520 nm.
In the enzymatic activity assay of 7-(substituted amino)-3,4-dihydropyrimido[4,5-d]pyrimidin-(1H)-ones against the EGFR kinase, due to the presence of the irreversible Michael addition reaction with the protein cysteine sites, some compounds show a relatively good inhibitive activity to both the two kinases. […] The R1 of 7-(substituted amino)-3,4-dihydropyrimido[4,5-d]pyrimidin-(1H)-ones plays a key role in the interaction between compounds and protein, especially when R1 is aryl, it can get the best activity. […]

[4] = test system: HCC827 (lung cancer cells, EGFR E746-A750 deletion); experiment: Cell proliferation by MTT, HCC827; type: cell-based; conditions: Homo sapiens, HCC827, read-out: HCC827 50% inhibitory concentration (IC50), 72 h
[5] = target: EGFRWT (Homo sapiens, UniProt P00533); experiment: In vitro enzymatic activity assay (Z'-LYTE), wild type EGFR; type: biochemical; conditions: Z'-LYTE FRET peptide assay; read-out: EGFRWT kinase activity (IC50)
Source text: as §1

[6] = target: EGFRL861Q (Homo sapiens, UniProt P00533, L861Q); experiment: In vitro enzymatic activity assay (Z'-LYTE), EGFR L861Q; type: biochemical; conditions: Z'-LYTE FRET peptide assay; read-out: EGFRL861Q kinase activity (IC50)
Source text: as §1

[7] = target: EGFRL858R + T790M (Homo sapiens, UniProt P00533, L858R/T790M); experiment: In vitro enzymatic activity assay (Z'-LYTE), EGFR L858R + T790M; type: biochemical; conditions: Z'-LYTE FRET peptide assay; read-out: EGFRL858R + T790M kinase activity (IC50)
Source text: as §1

[8] = target: EGFRL858R (Homo sapiens, UniProt P00533, L858R); experiment: In vitro enzymatic activity assay (Z'-LYTE), EGFR L858R; type: biochemical; conditions: Z'-LYTE FRET peptide assay; read-out: EGFRL858R kinase activity (IC50)
Source text: as §1

[9] = test system: H1975 (lung cancer cells, EGFR L858R&T790M); experiment: Cell proliferation by MTT, H1975; type: cell-based; conditions: Homo sapiens, NCI-H1975, read-out: H1975 50% inhibitory concentration (IC50), 72 h
[10] = test system: NCI-H820 (lung cancer cells); experiment: Cell proliferation by MTT, NCI-H820; type: cell-based; conditions: NCI-H820, read-out: NCI-H820 50% inhibitory concentration (IC50), 72 h

EGFRL858R, sequence (P00533 25-1210 L858R): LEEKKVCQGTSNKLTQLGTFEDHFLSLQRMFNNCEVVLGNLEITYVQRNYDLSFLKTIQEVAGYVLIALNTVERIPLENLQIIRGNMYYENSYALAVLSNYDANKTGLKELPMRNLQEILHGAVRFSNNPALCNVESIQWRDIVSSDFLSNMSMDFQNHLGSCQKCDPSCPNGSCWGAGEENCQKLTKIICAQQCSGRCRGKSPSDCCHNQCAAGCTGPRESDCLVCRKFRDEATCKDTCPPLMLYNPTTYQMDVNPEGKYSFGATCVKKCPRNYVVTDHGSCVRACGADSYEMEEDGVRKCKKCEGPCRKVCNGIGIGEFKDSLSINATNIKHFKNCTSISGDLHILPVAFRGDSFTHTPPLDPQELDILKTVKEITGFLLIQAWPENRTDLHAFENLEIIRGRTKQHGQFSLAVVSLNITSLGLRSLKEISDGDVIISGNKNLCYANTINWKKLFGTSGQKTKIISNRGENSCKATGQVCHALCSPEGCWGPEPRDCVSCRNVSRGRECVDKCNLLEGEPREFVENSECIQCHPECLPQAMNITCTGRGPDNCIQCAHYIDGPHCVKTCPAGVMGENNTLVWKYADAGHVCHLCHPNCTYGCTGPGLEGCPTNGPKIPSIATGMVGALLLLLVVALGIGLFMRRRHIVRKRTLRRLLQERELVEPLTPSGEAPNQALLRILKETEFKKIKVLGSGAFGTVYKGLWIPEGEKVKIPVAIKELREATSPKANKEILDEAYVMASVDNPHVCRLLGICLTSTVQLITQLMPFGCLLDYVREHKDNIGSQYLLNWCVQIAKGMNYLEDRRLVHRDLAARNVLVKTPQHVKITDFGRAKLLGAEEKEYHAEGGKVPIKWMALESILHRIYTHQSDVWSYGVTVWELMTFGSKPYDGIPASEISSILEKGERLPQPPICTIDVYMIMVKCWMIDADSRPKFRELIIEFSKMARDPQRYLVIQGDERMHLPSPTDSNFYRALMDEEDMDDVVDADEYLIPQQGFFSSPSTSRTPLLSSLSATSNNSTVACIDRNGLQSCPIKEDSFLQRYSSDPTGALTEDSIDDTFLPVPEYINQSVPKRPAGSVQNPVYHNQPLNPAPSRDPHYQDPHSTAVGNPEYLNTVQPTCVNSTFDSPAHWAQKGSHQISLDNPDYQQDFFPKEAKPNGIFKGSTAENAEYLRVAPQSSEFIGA
EGFRL858R + T790M, sequence (P00533 25-1210 T790M/L858R): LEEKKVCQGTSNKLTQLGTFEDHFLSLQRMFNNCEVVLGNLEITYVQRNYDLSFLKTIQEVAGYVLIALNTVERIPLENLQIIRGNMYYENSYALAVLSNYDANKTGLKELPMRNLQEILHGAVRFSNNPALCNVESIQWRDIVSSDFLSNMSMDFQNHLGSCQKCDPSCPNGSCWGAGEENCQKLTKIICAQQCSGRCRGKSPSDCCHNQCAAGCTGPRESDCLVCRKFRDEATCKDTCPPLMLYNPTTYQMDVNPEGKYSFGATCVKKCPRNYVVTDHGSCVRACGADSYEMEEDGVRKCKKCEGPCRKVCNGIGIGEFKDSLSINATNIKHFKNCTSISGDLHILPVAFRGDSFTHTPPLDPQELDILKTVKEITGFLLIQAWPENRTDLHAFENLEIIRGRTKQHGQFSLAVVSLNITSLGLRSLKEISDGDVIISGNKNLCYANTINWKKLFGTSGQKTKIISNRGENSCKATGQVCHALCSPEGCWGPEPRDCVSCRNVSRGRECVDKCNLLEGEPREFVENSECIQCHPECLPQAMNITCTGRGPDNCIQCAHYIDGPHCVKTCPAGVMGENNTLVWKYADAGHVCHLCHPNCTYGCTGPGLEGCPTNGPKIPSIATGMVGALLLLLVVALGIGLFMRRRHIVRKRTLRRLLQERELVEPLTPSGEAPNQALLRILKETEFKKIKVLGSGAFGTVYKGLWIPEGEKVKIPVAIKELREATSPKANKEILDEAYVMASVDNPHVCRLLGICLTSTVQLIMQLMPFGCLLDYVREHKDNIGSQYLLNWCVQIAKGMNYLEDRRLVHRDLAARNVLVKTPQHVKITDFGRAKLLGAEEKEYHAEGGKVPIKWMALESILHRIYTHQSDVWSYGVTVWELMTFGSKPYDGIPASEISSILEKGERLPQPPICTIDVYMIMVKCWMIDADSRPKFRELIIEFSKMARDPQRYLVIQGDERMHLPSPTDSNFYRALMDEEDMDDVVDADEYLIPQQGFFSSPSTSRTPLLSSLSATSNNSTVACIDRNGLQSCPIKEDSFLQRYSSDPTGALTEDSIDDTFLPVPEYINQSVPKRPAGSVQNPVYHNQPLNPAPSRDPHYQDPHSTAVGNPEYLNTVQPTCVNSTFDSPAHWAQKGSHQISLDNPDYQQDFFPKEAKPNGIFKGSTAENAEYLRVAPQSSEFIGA
EGFRWT, sequence (P00533 25-1210): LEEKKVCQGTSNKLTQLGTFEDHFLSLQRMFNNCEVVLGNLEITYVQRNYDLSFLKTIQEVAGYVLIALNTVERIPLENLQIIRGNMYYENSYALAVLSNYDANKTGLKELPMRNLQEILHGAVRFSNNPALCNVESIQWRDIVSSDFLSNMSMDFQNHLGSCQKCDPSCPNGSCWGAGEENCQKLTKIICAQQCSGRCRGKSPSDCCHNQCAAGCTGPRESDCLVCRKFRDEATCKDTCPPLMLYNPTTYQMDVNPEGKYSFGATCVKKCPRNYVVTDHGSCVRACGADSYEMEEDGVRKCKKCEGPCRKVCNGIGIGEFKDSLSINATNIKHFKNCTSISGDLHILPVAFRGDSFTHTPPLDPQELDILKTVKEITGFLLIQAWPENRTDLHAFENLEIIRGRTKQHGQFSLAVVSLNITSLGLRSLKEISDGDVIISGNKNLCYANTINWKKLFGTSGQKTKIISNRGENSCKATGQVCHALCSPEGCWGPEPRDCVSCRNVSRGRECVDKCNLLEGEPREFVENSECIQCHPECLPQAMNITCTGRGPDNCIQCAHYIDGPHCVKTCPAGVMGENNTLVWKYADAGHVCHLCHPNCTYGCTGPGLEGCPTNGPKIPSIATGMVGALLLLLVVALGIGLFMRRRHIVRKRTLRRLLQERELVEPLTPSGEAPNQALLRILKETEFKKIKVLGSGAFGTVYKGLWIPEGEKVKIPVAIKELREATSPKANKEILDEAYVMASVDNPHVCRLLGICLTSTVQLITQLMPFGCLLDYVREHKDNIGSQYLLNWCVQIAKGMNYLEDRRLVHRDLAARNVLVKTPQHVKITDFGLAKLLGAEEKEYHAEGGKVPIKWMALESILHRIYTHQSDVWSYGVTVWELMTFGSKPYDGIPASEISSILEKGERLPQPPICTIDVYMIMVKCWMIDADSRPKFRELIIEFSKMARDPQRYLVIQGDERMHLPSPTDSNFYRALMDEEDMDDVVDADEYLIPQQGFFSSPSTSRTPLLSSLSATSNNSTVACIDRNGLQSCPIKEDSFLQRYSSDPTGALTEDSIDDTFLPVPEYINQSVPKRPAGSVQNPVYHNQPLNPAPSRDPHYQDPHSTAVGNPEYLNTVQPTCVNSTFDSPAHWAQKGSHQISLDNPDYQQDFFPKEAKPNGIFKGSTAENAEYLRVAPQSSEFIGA
EGFRL861Q, sequence (P00533 25-1210 L861Q): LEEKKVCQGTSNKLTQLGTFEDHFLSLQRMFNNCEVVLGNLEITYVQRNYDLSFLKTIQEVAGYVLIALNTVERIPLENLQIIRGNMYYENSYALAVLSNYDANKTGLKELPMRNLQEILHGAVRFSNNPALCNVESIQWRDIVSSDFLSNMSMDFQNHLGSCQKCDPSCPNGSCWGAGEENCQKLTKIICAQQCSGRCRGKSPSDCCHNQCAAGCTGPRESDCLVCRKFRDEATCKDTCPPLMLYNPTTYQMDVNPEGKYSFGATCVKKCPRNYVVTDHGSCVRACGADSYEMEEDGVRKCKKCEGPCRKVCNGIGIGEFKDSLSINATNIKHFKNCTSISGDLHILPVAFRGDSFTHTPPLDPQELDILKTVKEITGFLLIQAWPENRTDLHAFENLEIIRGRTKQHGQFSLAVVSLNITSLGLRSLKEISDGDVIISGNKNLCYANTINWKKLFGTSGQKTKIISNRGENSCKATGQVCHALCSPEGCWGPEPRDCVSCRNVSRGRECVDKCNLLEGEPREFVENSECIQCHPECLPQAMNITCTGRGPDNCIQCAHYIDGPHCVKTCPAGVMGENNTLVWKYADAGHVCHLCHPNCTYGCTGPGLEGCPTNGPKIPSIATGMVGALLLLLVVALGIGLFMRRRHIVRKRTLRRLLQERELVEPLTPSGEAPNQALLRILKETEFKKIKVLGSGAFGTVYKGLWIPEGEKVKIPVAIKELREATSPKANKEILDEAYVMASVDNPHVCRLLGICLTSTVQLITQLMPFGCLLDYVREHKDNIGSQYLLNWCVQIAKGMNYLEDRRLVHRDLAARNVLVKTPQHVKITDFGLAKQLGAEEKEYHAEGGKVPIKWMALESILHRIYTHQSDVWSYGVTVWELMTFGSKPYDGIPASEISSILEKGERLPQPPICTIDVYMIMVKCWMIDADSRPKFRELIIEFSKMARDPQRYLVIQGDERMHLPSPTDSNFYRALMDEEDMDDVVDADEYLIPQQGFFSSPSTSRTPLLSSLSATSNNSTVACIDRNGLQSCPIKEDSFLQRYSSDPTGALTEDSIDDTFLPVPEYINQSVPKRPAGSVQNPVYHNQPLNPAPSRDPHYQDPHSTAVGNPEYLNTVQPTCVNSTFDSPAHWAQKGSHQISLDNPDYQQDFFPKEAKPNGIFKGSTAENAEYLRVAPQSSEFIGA

pIC50 [1] | pIC50 [2] | inhibitive activity for inhibiting a kinase at a relatively high test concentration [3] | pIC50 [4] | pIC50 [5] | pIC50 [6] | pIC50 [7] | pIC50 [8] | pIC50 [9] | pIC50 [10] | SMILES
5.00 to 6.00 | < 4.52 | poor | 5.31 | 6.00 to 7.00 | 5.00 to 6.00 | 5.00 to 6.00 | 6.00 to 7.00 | < 4.70 |  | COc1cc(N2CCN(C)CC2)ccc1Nc1ncc2c(n1)N(c1cccc(N)c1)C(=O)N(C)C2 [C-EGF33, 1-(3-aminophenyl)-7-(2-methoxy-4-(4-methylpiperazin-1-yl)phenylamino)-3-methyl-3,4-dihydropyrimido[4,5-d]pyrimidin-2(1H)-one]
≥ 8.00 | 5.46 |  | 6.90 | ≥ 8.00 | ≥ 8.00 | ≥ 8.00 | ≥ 8.00 | 6.75 | < 4.00 | C=CC(=O)Nc1cccc(N2C(=O)N(C)Cc3cnc(Nc4ccc(N5CCC(N6CCN(C)CC6)CC5)cc4)nc32)c1 [Compound X003, N-(3-(3-methyl-7-(4-(4-(4-methylpiperazin-1-yl)piperidin-1-yl)phenylamino)-2-oxo-3,4-dihydropyrimido[4,5-d]pyrimidin-1(2H)-yl)phenyl)acrylamide]
≥ 8.00 | < 4.00 |  | 6.74 | ≥ 8.00 | ≥ 8.00 | ≥ 8.00 | ≥ 8.00 | 6.58 | < 4.00 | C=CC(=O)Nc1cccc(N2C(=O)N(C)Cc3cnc(Nc4ccc(N5CCC(N(C)C)CC5)cc4)nc32)c1 [Compound X004, N-(3-(7-(4-(4-(dimethylamino)piperidin-1-yl)phenylamino)-3-methyl-2-oxo-3,4-dihydropyrimido[4,5-d]pyrimidin-1(2H)-yl)phenyl)acrylamide]
≥ 8.00 | 4.79 |  | 7.64 | ≥ 8.00 | ≥ 8.00 | ≥ 8.00 | ≥ 8.00 | 6.48 | < 4.00 | C=CC(=O)Nc1cccc(N2C(=O)N(C)Cc3cnc(Nc4ccc(N5CCSCC5)cc4)nc32)c1 [Compound X005, N-(3-(3-methyl-2-oxo-7-(4-thiomorpholinophenylamino)-3,4-dihydropyrimido[4,5-d]pyrimidin-1(2H)-yl)phenyl)acrylamide]
7.00 to 8.00 | 4.20 |  | 6.97 | ≥ 8.00 | 7.00 to 8.00 | 7.00 to 8.00 | 7.00 to 8.00 | 6.27 | < 4.00 | C=CC(=O)Nc1cccc(N2C(=O)N(C)Cc3cnc(Nc4ccc(N5CCN(C)CC5)cc4OC(C)C)nc32)c1 [Compound X006, N-(3-(7-(2-isopropoxy-4-(4-methylpiperazin-1-yl)phenylamino)-3-methyl-2-oxo-3,4-dihydropyrimido[4,5-d]pyrimidin-1(2H)-yl)phenyl)acrylamide]
≥ 8.00 | 5.46 |  | 6.59 | ≥ 8.00 | ≥ 8.00 | ≥ 8.00 | ≥ 8.00 | 6.16 | < 4.00 | C=CC(=O)Nc1cccc(N2C(=O)N(C)Cc3cnc(Nc4ccc(N5CCOCC5)cc4)nc32)c1 [Compound X007, N-(3-(3-methyl-7-(4-morpholinophenylamino)-2-oxo-3,4-dihydropyrimido[4,5-d]pyrimidin-1(2H)-yl)phenyl)acrylamide]
7.00 to 8.00 | 4.52 |  | 6.75 | ≥ 8.00 | ≥ 8.00 | ≥ 8.00 | ≥ 8.00 | 5.96 | < 4.00 | C=CC(=O)Nc1cccc(N2C(=O)N(C)Cc3cnc(Nc4ccc(OCCN5CCOCC5)cc4OC)nc32)c1 [Compound X008, N-(3-(7-(2-methoxy-4-(2-morpholinoethoxy)phenylamino)-3-methyl-2-oxo-3,4-dihydropyrimido[4,5-d]pyrimidin-1(2H)-yl)phenyl)acrylamide]
7.00 to 8.00 | < 5.30 |  | 8.52 | ≥ 8.00 | ≥ 8.00 | ≥ 8.00 | ≥ 8.00 | 6.15 | < 4.00 | C=CC(=O)Nc1cccc(N2C(=O)N(C)Cc3cnc(Nc4ccc(N5CCN(C)CC5)cc4OCC)nc32)c1 [Compound X009, N-(3-(7-(2-ethoxy-4-(4-methylpiperazin-1-yl)phenylamino)-3-methyl-2-oxo-3,4-dihydropyrimido[4,5-d]pyrimidin-1(2H)-yl)phenyl)acrylamide]
≥ 8.00 | 5.84 |  | 7.28 | ≥ 8.00 | ≥ 8.00 | ≥ 8.00 | ≥ 8.00 | 6.76 | 4.38 | C=CC(=O)Nc1cccc(N2C(=O)N(C)Cc3cnc(Nc4ccc(N5CCN(C)CC5)cc4C)nc32)c1 [Compound X010, N-(3-(3-methyl-7-(2-methyl-4-(4-methylpiperazin-1-yl)phenylamino)-2-oxo-3,4-dihydropyrimido[4,5-d]pyrimidin-1(2H)-yl)phenyl)acrylamide]
≥ 8.00 | 5.40 |  | 7.54 | ≥ 8.00 | ≥ 8.00 | ≥ 8.00 | ≥ 8.00 | 6.94 | < 4.00 | C=CC(=O)Nc1cccc(N2C(=O)N(C)Cc3cnc(Nc4ccc(N5CCN(C)CC5)cc4)nc32)c1 [x001, N-(3-(3-methyl-7-(4-(4-methylpiperazin-1-yl)phenylamino)-2-oxo-3,4-dihydropyrimido[4,5-d]pyrimidin-1(2H)-yl)phenyl)acrylamide]

— patent publication US20140296216A1, “PYRIMIDO[4,5-D]PYRIMIDINYL COMPOUNDS, PHARMACEUTICAL COMPOSITIONS AND USES THEREOF” (GUANGZHOU INSTITUTE OF BIOMEDICINE AND HEALTH, CHINESE …, priority 2011, published 2014)
